Test results as given in US4439365A, “Novel hydroxy substituted prostanoic acids, esters, congeners, intermediates and process” (American Cyanamid Company, priority 1979, dated 1984).

Key:
[1] = system: ulcerogenic properties of indomethacin; assay: Protection against indomethacin-induced ulcers in rats; assay type: in vivo; conditions: indomethacin 20 mg./kg. s.c.
Procedure: The compounds of this invention provide protection against the ulcerogenic properties of indomethacin. This assay was carried out in the following manner.
Rats were starved for 48 hours (water was given ad libitum). Indomethacin (20 mg./kg. of body weight) was administered by the subutaneous route and one-half the dose of the test compound was administered by gavage at the same time. After three hours, the second half of the test compound was administered also by Gavage. Five hours after the administration of indomethacin the animals were decapitated and the stomachs removed. The stomachs were washed with distilled water, blotted on gauze, cut along the larger curvature, and the contents rinsed with distilled water. The stomachs were spread out, pinned on a cork and visualized under magnifying glass for ulcers. The criteria for scoring of ulcers was as previously reported. [Abdel-Galil et al. Brit. J. Pharmac. Chemotherapy 33:1-14 (1968)]. […]
Control animals treated with indomethacin but not test compound consistently give scores of about 3.0-3.5. Control animals treated with neither indomethacin nor test compound give scores of about 0.5-0.8. Compounds producing a score of 2.5 or lower are considered to be active.

gastric acid secretion = assay: Gastric acid secretion inhibition, modified Shay rat procedure; assay type: in vivo, rats (male, CFE strain); conditions: pylorus-ligated rats, intraduodenal dose 100 mg./kg., 3 hours, 20% or more active, read-out: Percent Inhibition of gastric acid secretion
Procedure: The novel compounds of the present invention are also effective inhibitors of gastric acid secretion and of ulcer development in experimental animals, and thus are potentially valuable as agents for the control of gastric acid secretion and of gastric erosion and as anti-ulcer agents. Gastric acid secretion inhibitory action is usually measured by the "Shay rat" procedure^(1,2) with some modifications as follows.
The rats (male, CFE strain), were starved for 48 hours (water was given ad libitum) to permit evacuation of stomach contents. On the morning of the experiment, under ether anesthesia, the abdominal region was shaved and a midline incision (1-11/2") was made with a scapel. […]
The abdominal cavity was exposed by cutting with scissors and the esophagus close to the stomach was clamped off with a hemostat, the stomach was removed by cutting above the hemostat (the esophagus was cut) and between the two sutures. […] The supernatant was collected, volume measured and recorded, 2 drops of a phenolphthalein indicator (1% in 95% ethanol) were added and the solution was titrated with 0.02 N NaOH (or with 0.04 N NaOH when large volumes of stomach contents were encountered) to pH 8.4 (because of usual coloring of the stomach contents, phenolphthalein was only used to permit visual indication that the end point was near) and the amount of acid present was calculated. […]

[2] = total oral dose 25 mg./kg. in two halves by gavage, scale 0 normal stomach to 4 many ulcers, mainly large, 2.5 or lower active, control 3.2

CCCCC[C@H](O)/C=C/[C@H]1CCC(=O)[C@@H]1CCCCSCC(=O)O (relative stereo) [9-oxo-3-thia-15-hydroxy-13-trans-prostenoic acid]
Score Treated (ulcer score) [1, 2]: 1.8

CCCCC[C@@H](O)/C=C/[C@H]1CCC(=O)[C@@H]1CCCCSCC(=O)O (relative stereo) [9-oxo-3-thin-15-epi-hydroxy-13-trans-prostenoic acid]
Score Treated (ulcer score) [1, 2]: 2.3

CCCCCC(O)/C=C/[C@H]1CCC(=O)[C@]1(C)CCCCCCC(=O)O (relative stereo) [9-oxo-8β-methyl-15-hydroxy-13-trans-prostenoic acid]
Score Treated (ulcer score) ([1]; total oral dose 12.5 mg./kg. in two halves by gavage, scale 0-4, 2.5 or lower active, control 3.0): 2.0

CCCCCC(O)/C=C/C1CCC(=O)C1CCCCCC(CC)C(=O)O (stereo not drawn) [9-oxo-15-hydroxy-2-ethyl-13-trans-prostenoic acid]
Score Treated (ulcer score) ([1]; total oral dose 50 mg./kg. in two halves by gavage, scale 0-4, 2.5 or lower active, control 3.0): 2.2

CCCCCC(O)/C=C/C1CCC(=O)C1CCCCC(C)(C)CC(=O)O (stereo not drawn) [9-oxo-15-hydroxy-3,3-dimethyl-13-trans-prostenoic acid]
inhibition at 100 mg/kg (gastric acid secretion): 51%

CCCCCC(O)/C=C\C1CCC(=O)C1CCCCCCC(=O)O (stereo not drawn) [9-oxo-15-hydroxy-13-cis-prostenoic acid]
Score Treated (ulcer score) ([1]; total oral dose 100 mg./kg. in two halves by gavage, scale 0-4, 2.5 or lower active, control 3.0): 1.3

CCCCC(CC)C(O)/C=C/C1CCC(=O)C1CCCCCCC(=O)O (stereo not drawn) [9-oxo-15-hydroxy-16-ethyl-13-trans-prostenoic acid]
Score Treated (ulcer score) [1, 2]: 1.7
